Literature values, collected in patent US12115373B2, “Methods for reducing the risk of strokes by pharmacotherapy to reduce the number and duration of atrial fibrillations” (Xyra, LLC, priority 2022, dated 2024).

Conditions: in 2016; reported by the Market Insider; cited from earlier work

In the case of `O=C(NC[C@H]1CN(c2ccc(N3CCOCC3=O)cc2)C(=O)O1)c1ccc(Cl)s1` [Xarelto, rivaroxaban], the adverse events is listed as “over 15,000”.
